The text below walks through data of a melting point compilation (Tetko et al.; mined from patent text by program, amines drawn as free bases though some values may be those of a salt).

Structures are written as SMILES.

What is called melting point is the temperature of the solid-liquid transition.

Consider `Cc1ccc(C)c2c1CCC2=NNC(N)=Nc1c(Cl)cccc1Cl`, for which the melting point was above 275 °C. With `CCCCCS(=O)(=O)NC(=O)c1ccc2sc(C)c(Cc3ccc(Cl)c(Cl)c3)c2c1` the figure was 159 to 160 °C; with `COc1cccc2c(=O)n(/C=C/C(=O)O)cnc12`, 289 to 291 °C. With `COc1cccc2c1SCCC2=O` the figure was 110 °C; with `CCn1ncc2c(O)c3c(nc21)C(=O)c1ccccc1CC3`, 190 to 192 °C; with `COc1ccc2c(c1)cc(C=O)n2S(=O)(=O)c1ccccc1`, 123 to 124 °C.

Consider `O=C(COc1ccccc1)c1ccc(Cl)cc1`, for which the melting point fell in the range of 80 to 83 °C. With `N#CSCC(Br)=C(Br)CSC#N` the figure was 180 °C; with `COc1ccc(C(=O)C=CN(C)C)cc1`, 82 to 85 °C; with `COc1c(NC2CCC(=Cc3ccccc3)CC2)ccnc1C` (stereo unspecified), 120 °C. As for `O=C1C(c2ccc(O)cc2)=C(c2ccccc2)c2cc(O)cc(O)c21`, the melting point was in the range of 128 to 130 °C. For `COc1ccc(C(=O)N2CCCC(=O)c3ccc(Cl)cc3CCC2=O)cc1`, the melting point is 143 °C. With `O=C(C=Cc1c(Cl)cccc1Cl)c1ccccc1` the figure was 83 °C; with `Cc1cc(C)cc(NCc2ccc3nc(NC4CCNC(CCN5CCOCC5)C4)n(Cc4nc(C)ccc4O)c3c2)c1` (stereo unspecified), 150 °C.

On to `O=C1C=CC(=O)N1c1cccc(Oc2cccc(Oc3cccc(N4C(=O)C=CC4=O)c3)c2)c1`, for which the melting point fell in the range of 138 to 140 °C. With `CCOC(=O)CCc1cc(O)nn1-c1ccccc1` the figure was 150 to 151 °C; with `O=C(Sc1ccccn1)c1ccc(Br)cc1`, 69 to 70 °C. `O=C1Nc2ccc(Br)cc2/C1=C/c1ccc[nH]1` displayed a melting point of 267 to 268 °C. To `N#Cc1ncccc1Oc1ccccc1Cl` belongs 90 to 92 °C. With `COc1ccc([N+](=O)[O-])c(N2CCCC2)c1` the figure was 46 to 48.5 °C; with `Cc1ccc(-c2nc3cc(N=C=S)ccc3o2)o1`, 110 to 121 °C; with `COC(=O)C(N)(CO)Cc1c[nH]c2ccccc12` (racemic), 148 to 149 °C. With `Cc1ccc(-c2ccn(C(C)C(=O)N(C)C)n2)cc1` (stereo unspecified) the figure was 79 to 82 °C.

Regarding `CS(=O)c1c(C#N)nn(-c2ccc(C(F)(F)F)cc2Cl)c1N` (stereo unspecified), the melting point fell in the range of 146 to 147 °C. To `CC1c2cc(OCC(=O)O)c(Cl)c(Cl)c2C(=O)C1(C)Cl` (stereo unspecified) belongs 179 to 187 °C; to `C=CC(=O)Oc1ccc(C(C)(c2ccc(OC(=O)C=C)cc2)c2ccc(OC(=O)C=C)cc2)cc1`, 130 °C. With `O=P1(O)Oc2ccccc2-c2cc(C(F)(F)F)ccc21` the figure was 240 °C; with `COc1ccc(C(=O)Nc2ccccc2C(O)C2CCCCN2)cc1` (stereo unspecified), 158 to 160 °C; with `CC(C)(C)OC(=O)N1CC(CCl)c2c1cc(NC(=O)OCC1c3ccccc3-c3ccccc31)c1ccccc21` (stereo unspecified), 103 to 106 °C.

As to `CCOC(=O)C1=C2NCCN2CCC1`, the melting point worked out at 89 °C.

On to `CN(Cc1ccccc1)C1(C#N)CCN(Cc2ccccc2)CC1`, for which the melting point was 67 to 68 °C. `COc1ccc2c(c1)C1=C(SCC3(CCN(Cc4ccc(F)cc4)CC3)O1)C(=O)C2=O` returned a melting point of 196 to 197 °C. `COC(=O)CCc1cc2cc(Cl)ccc2n1S(=O)(=O)c1cccc2cccnc12` registered a melting point of 157 to 161 °C. With `CN/C(=C1/Sc2ccccc2C1=O)c1ccccc1` the figure was 154 to 155 °C; with `CCCn1c(=S)[nH]c2ccc(I)cc2c1=O`, above 200 °C. `CCCCn1c(=O)c(N)c(-c2cccc(OC)c2)c2cccnc21` showed a melting point of 138 to 141 °C.

In the case of `Clc1ccc(NN=Cc2cccnc2)cc1`, the melting point is 186 °C. To `CCCCCCCCCCCCCCc1ccc(C(=O)OCC)[nH]1` belongs 60 to 63 °C. With `CCCCc1nc2c(N)nc3cccnc3c2n1CCNC(=O)Cc1cccc(O)c1` the figure was 208 to 210 °C.

`COc1ccc2c(c1)cc(-c1nnn(Cc3cccc(OCc4ccc5ccccc5n4)c3)n1)c(=O)n2CCCCl` displayed a melting point of 150 to 152 °C. As for `NCCCCCCc1ccc(Cl)cc1`, the melting point stood at 71 °C.

`CCN(CC)CC1CCCCN1CCNC(=O)N1c2cc(Cl)ccc2C(=O)Nc2cccnc21` (stereo unspecified) yielded a melting point of 169 to 170 °C.

For `Cc1ccnc(SCc2nc3ccc(CC(=O)O)cc3[nH]2)c1`, the melting point is 121 to 124 °C. With `N#Cc1ncccc1OC1SCC(O)C(O)C1O` (stereo unspecified) the figure was 174 °C; with `N#Cc1cc(=O)cc(-c2ccccc2)o1`, 146 to 149 °C; with `Cn1nccc1C(=O)c1cc(O)c(O)c(Cl)c1Cl`, 202 to 204 °C. `COCOc1cc(C=CC(=O)c2c(OC)cc(OC)c(CC=C(C)C)c2O)ccc1OC` showed a melting point of 116 to 117 °C.

As to `N#Cc1cccc(C2C=C(C(F)(F)F)NC3=C2C(=O)CCC3)c1` (stereo unspecified), the melting point fell in the range of 182 to 183 °C. To `O=S1(=O)NCN(C2CC2)c2ccc(F)c(Cl)c21` belongs 198 to 200 °C; to `O=C(OCc1ccccc1)c1ccc2cc(-c3ccc(CC(O)CO)c(C45CC6CC(CC(C6)C4)C5)c3)ccc2c1` (stereo unspecified), 200 °C. As to `S=C(c1cc2n(c1)Cc1ccccc1-n1ccnc1-2)N1CCOCC1`, the melting point lay in the range of 210 to 211 °C. With `Cc1nc(-c2ccc(N3CCOCC3)cc2)sc1-c1ccnc(Nc2ccc(N3CCOCC3)cc2)n1` the figure was 273 to 274 °C; with `COc1ccc2nc3cc(Cl)ccc3c(Oc3ccc(Cl)cc3)c2c1`, 152 to 153 °C; with `CCOC(=O)ON(C(N)=O)[C@H]1C[C@@H](c2ccc(F)cc2)C1`, 124 to 126 °C.

`O=C(NC1CC1)c1cc(Nc2nc(Cl)nc3ccoc23)[nH]n1` returned a melting point of 247 °C.

Turning to `CCOCc1nc2c(N)nc3cc(OCc4ccccc4Cl)ccc3c2n1CC(C)C`, the melting point lay within 211 to 212 °C. To `CCn1c(C)c(C(=O)c2ccccc2)c(N=Cc2ccccc2)c1-c1ccccc1` belongs 147 to 148 °C; to `Cc1cccc(C)c1NC(=S)N1CC(Oc2cccc(C(F)(F)F)c2)C1`, 197 to 199 °C; to `CS(=O)(=O)Nc1ccc(OCC2CCN(C(=O)OCc3ccccc3)CC2)cc1`, 150 to 151 °C. For the compound `CC(=O)N1CCc2cc(Br)cc(C#N)c21`, the melting point was 170 to 175 °C. To `O=C1Nc2ccc(Cl)cc2C(C#Cc2ccccc2)(C(F)(F)F)O1` (single isomer, unassigned; (-)) belongs 178 to 179 °C; to `O=C(O)C(=O)c1ccccc1Nc1c(Cl)cccc1Cl`, 159 to 160 °C; to `Cn1cc(OS(C)(=O)=O)c(=O)c2ccc(S(C)=O)cc21` (stereo unspecified), 248 °C. To `O=C1c2c(F)c(F)c(F)c(F)c2C(=O)N1c1ccccc1` belongs 210 to 211 °C. To `CC(C)Nc1nccc(C(=O)C(=O)c2ccc(F)cc2)n1` belongs 75 to 77 °C. With `C/C(=C\c1ccc(O)cc1)c1ccc2c(c1)SC(C)(C)S2`, the melting point is 123 to 124 °C.
